In article PMC3388080 (PLoS ONE, 2012):

Legend:
Assay type in all cases: in vivo, rat
male Sprague-Dawley rats [1] = assay: EEG/EMG/Tcore/LMA telemetry sleep study 1 (SB-334867 vs ZOL); conditions: 7.5 mg/kg ip
Method: (§1) All rodent electroencephalograph (EEG) studies were performed at SRI International. Three groups of eight male Sprague-Dawley rats (300±25 g; Charles River, Wilmington, MA) were implanted with chronic recording devices (F40-EET, Data Sciences Inc., St Paul, MN) for continuous recordings of EEG, electromyograph (EMG), core body temperature (Tcore), and LMA via telemetry as previously described. Data recording and scoring were performed as previously reported (see also Supplemental Material and Methods). The EEG and EMG data were scored in 10 sec epochs for waking (W), rapid eye movement sleep (REM), and non-REM sleep (NR). Tcore and LMA (counts per minute) were analyzed as hourly means. Data from the EEG studies are reported in hourly means such that the hourly time ZT1 refers to the hour between time points ZT0 and ZT1.
(§2) For each of the three separate studies, a repeated measures counter-balanced design was employed in which each rat received five separate dosings. […] All dosings were administered ip in a volume of 2 ml/kg. A minimum of 3 d elapsed between doses. Dosing occurred during the middle of the rats’ normal active period at the start of ZT19 and was typically completed within 10 min. Animals were continuously recorded for 6 h prior to dosing and for 18 h following dosing.

male Sprague-Dawley rats [2] = assay: EEG/EMG/Tcore/LMA telemetry sleep study 2 (EMPA vs ZOL); conditions: ZOL 10 mg/kg ip
Method: as §1, §2

male Sprague-Dawley rats [3] = assay: EEG/EMG/Tcore/LMA telemetry sleep study 3 (almorexant vs ZOL); conditions: ZOL 10 mg/kg ip
Method: as §1, §2

male Sprague-Dawley rats [4] = assay: Rodent EEG studies, all three studies together
Method: as §1, §2

## Cc1ccc(-c2nc3ccc(C)cn3c2CC(=O)N(C)C)cc1 [ZOL, N,N,6-Trimehtyl-2-(methylphenyl)-imidazol[1,2-a]pyridine-3-acetamide]
Male Sprague-Dawley rats [1]; 6 h Average
  NR bout duration: 1.63 ± 0.07
  REM bout duration: 0.99 ± 0.09
  W bout duration: 4.50 ± 0.41
Male Sprague-Dawley rats [1]; 6 h Total
  Number of NR bouts: 62.88 ± 3.98
  Number of REM bouts: 13.13 ± 1.32
  Number of W bouts: 56.0 ± 4.43
Male Sprague-Dawley rats [1]; ZT19
  NR bout duration: 3.33 ± 0.78
  Number of NR bouts: 7.50 ± 1.43
  Number of REM bouts: 1.38 ± 0.46
  Number of W bouts: 6.75 ± 1.31
  REM bout duration: 0.77 ± 0.20
Male Sprague-Dawley rats [1]; ZT20
  NR bout duration: 2.95 ± 0.43
  Number of NR bouts: 7.75 ± 1.29
  Number of REM bouts: 0.88 ± 0.48
  Number of W bouts: 6.00 ± 0.82
  REM bout duration: 0.76 ± 0.19
Male Sprague-Dawley rats [1]; ZT21
  NR bout duration: 1.87 ± 0.20
  Number of NR bouts: 17.25 ± 2.00
  Number of REM bouts: 4.50 ± 0.78
  Number of W bouts: 12.00 ± 1.95
  REM bout duration: 1.28 ± 0.11
  W bout duration: 2.44 ± 0.75
Male Sprague-Dawley rats [1]; ZT22
  NR bout duration: 1.01 ± 0.10
  Number of NR bouts: 14.88 ± 1.88
  Number of REM bouts: 1.25 ± 0.75
  Number of W bouts: 14.75 ± 2.49
  W bout duration: 3.30 ± 0.66
Male Sprague-Dawley rats [1]; ZT23
  NR bout duration: 0.82 ± 0.10
  Number of NR bouts: 7.25 ± 1.06
  Number of REM bouts: 1.00 ± 0.38
  Number of W bouts: 7.75 ± 1.19
  REM bout duration: 0.72 ± 0.26
Male Sprague-Dawley rats [1]; ZT24
  NR bout duration: 0.84 ± 0.09
  Number of NR bouts: 8.25 ± 1.75
  Number of W bouts: 7.88 ± 1.63
  REM bout duration: 0.86 ± 0.24
  W bout duration: 12.51 ± 0.82
Male Sprague-Dawley rats [2]; 6 h Average
  NR bout duration: 1.80 ± 0.13
  REM bout duration: 0.88 ± 0.07
  W bout duration: 3.94 ± 0.29
Male Sprague-Dawley rats [2]; 6 h Total
  Number of NR bouts: 73.70 ± 4.34
  Number of REM bouts: 12.10 ± 1.30
  Number of W bouts: 55.80 ± 3.84
Male Sprague-Dawley rats [2]; ZT19
  NR bout duration: 3.89± 0.68
  Number of NR bouts: 8.90 ± 1.06
  Number of REM bouts: 0.60± 0.31
  Number of W bouts: 8.10± 0.97
  REM bout duration: 0.65± 0.16
  W bout duration: 3.64± 0.51
Male Sprague-Dawley rats [2]; ZT20
  NR bout duration: 3.13± 0.44
  Number of NR bouts: 11.60± 1.38
  Number of REM bouts: 1.10± 0.48
  Number of W bouts: 8.60± 1.59
  REM bout duration: 0.96± 0.27
  W bout duration: 3.23± .037
Male Sprague-Dawley rats [2]; ZT21
  NR bout duration: 1.81± 0.27
  Number of NR bouts: 16.40± 2.10
  Number of REM bouts: 3.30± 0.75
  Number of W bouts: 11.00± 1.74
  REM bout duration: 0.66± 0.09
  W bout duration: 3.10± .059
Male Sprague-Dawley rats [2]; ZT22
  NR bout duration: 1.34± 0.17
  Number of NR bouts: 16.10± 1.11
  Number of REM bouts: 4.80± 0.55
  Number of W bouts: 12.10± 0.85
  REM bout duration: 0.97± 0.10
  W bout duration: 2.59± 0.31
Male Sprague-Dawley rats [2]; ZT23
  NR bout duration: 0.98± 0.11
  Number of NR bouts: 13.00± 1.64
  Number of REM bouts: 1.90± 0.35
  Number of W bouts: 8.90± 1.15
  W bout duration: 5.59 ±0.93
Male Sprague-Dawley rats [2]; ZT24
  NR bout duration: 0.92± 0.20
  Number of NR bouts: 7.50± 1.58
  Number of REM bouts: 0.40± 0.22
  Number of W bouts: 6.20± 1.31
  REM bout duration: 0.58± 0.14
  W bout duration: 12.90± 3.56
Male Sprague-Dawley rats [3]; 6 h Average
  NR bout duration: 1.99 ± 0.16
  REM bout duration: 0.97 ± 0.12
  W bout duration: 2.88 ± 0.16
Male Sprague-Dawley rats [3]; 6 h Total
  Number of NR bouts: 77.63 ± 3.56
  Number of REM bouts: 7.38 ± 1.68
  Number of W bouts: 68.00 ± 4.23
Male Sprague-Dawley rats [3]; ZT19
  NR bout duration: 3.53 ± 0.71
  Number of REM bouts: 0.50 ± 0.27
  Number of W bouts: 8.75 ± 1.56
  REM bout duration: 0.33 ± 0.10
  W bout duration: 4.15 ± 0.82
Male Sprague-Dawley rats [3]; ZT20
  NR bout duration: 2.90 ± 0.19
  Number of NR bouts: 11.63 ± 1.36
  Number of REM bouts: 0.50 ± 0.38
  Number of W bouts: 10.00 ± 0.71
  REM bout duration: 2.25 ± 0.25
  W bout duration: 2.31 ± 0.33
Male Sprague-Dawley rats [3]; ZT21
  NR bout duration: 2.84 ± 0.34
  Number of NR bouts: 11.88 ± 1.60
  Number of W bouts: 10.25 ± 1.56
  W bout duration: 2.69 ± 0.42
Male Sprague-Dawley rats [3]; ZT22
  NR bout duration: 2.27 ± 0.44
  Number of NR bouts: 13.50 ± 1.88
  Number of REM bouts: 2.50 ± 0.82
  Number of W bouts: 10.50 ± 1.21
  W bout duration: 3.13 ± 0.59
Male Sprague-Dawley rats [3]; ZT23
  NR bout duration: 1.29 ± 0.20
  Number of NR bouts: 17.25 ± 3.27
  Number of REM bouts: 1.75 ± 0.41
  Number of W bouts: 15.13 ± 3.17
  W bout duration: 3.85 ± 1.44
Male Sprague-Dawley rats [3]; ZT24
  NR bout duration: 1.03 ± 0.12
  Number of NR bouts: 13.13 ± 2.37
  Number of REM bouts: 1.00 ± 0.42
  Number of W bouts: 12.63 ± 2.40
  REM bout duration: 0.66 ± 0.29
  W bout duration: 4.15 ± 0.83
Male Sprague-Dawley rats [4]; ZOL 7.5 or 10 mg/kg ip, all three experiments
  NR latency (in words): decrease in NR latency
Male Sprague-Dawley rats [4]; all three experiments
  cumulative NR (in words): increased cumulative NR
  cumulative REM (in words): decreased cumulative REM
Male Sprague-Dawley rats [4]; all three studies, followed by rebound increase in the light period
  Tcore (in words): largest declines in Tcore
Male Sprague-Dawley rats [4]; compared to vehicle control
  EEG delta power during NR (in words): significant effects on EEG delta power during NR
